“Also recorded” adds a separate entry of the source. Read-outs that look alike come from different tables or passages of the source.
Key:
clinical = settings: human
Procedure: Blood samples will be taken for peak and trough measurements, pre-dose and immediately prior to (end of infusion) EOI, on Cycle 1 Day 1. On Cycle 1 Day 15 full PK sampling will be done: pre-dose, immediately prior to EOI and then 2, 5, 15, 30, 45, 60, 90 and 120 minutes post infusion. The following PK parameters will be estimated by non-compartmental analysis:
Non-compartmental analyses will be performed. […] Blood concentrations and computed PK parameters for MRZ will be listed and summarized by cohort (mean, geometric mean, standard deviation, coefficient of variation, minimum, maximum and number of observations).
For MRZ samples will be obtained before treatment and just prior to end of infusion on Cycle 1 Day 1. On Cycle 1 Day 15, MRZ blood samples will be obtained before treatment, just prior to end of infusion, and 2, 5, 15, 30, 45, 60, 90, and 120 minutes after the infusion. Every effort should be made to collect samples at the prescribed times, but deviations up to 10% of the time point are allowed. […] After blood collection, neutralizing solution must be added.

CNS-MM = experiment: Compassionate use of marizomib in CNS-myeloma patients: response (IMWG, CSF, MRI, neurological); assay type: in vivo, human
Procedure: This example sets forth seven case studies in which CNS-MM (i.e., multiple myeloma with CNS involvement) was treated using marizomib alone or in combination with other agents.
Daratumumab (16 mg/kg weekly×2 months) was added with continued marizomib.
Marizomib was given on compassionate use protocol (see above) at 0.7 mg/m^2 as a 10 min IV infusion on days 1, 8 and 15 along with dexamethasone on a 28 day Cycle.
In July 2016, marizomib was given on compassionate use protocol at 0.8 mg/m^2 as a 10 min IV infusion on days 1, 8 and 15 along with dexamethasone on a 28 day Cycle. Pomalidomide was also given at 4 mg daily on days 1 through days 21.
In August 2016, marizomib was given on compassionate use protocol at 0.7 mg/m^2 as a 10 min IV infusion on days 1, 8 and 15 along with dexamethasone on a 28 day Cycle. Pomalidomide was dosed at 4 mg daily on days 1 through days 21.
The patient was treated with marizomib, oral pomalidomide, and oral dexamethasone.
All patients had systemic disease with CNS involvement.

[1] = 10 mg/kg dose, Gordon et al., 2001; cited from earlier work
[2] = BEV serum pharmacokinetics (Phase 1 MRZ + BEV); assay type: in vivo, human; settings: for BEV pharmacokinetic parameters: effect of co-administration: with MRZ
Procedure: The drugs were infused on 28-Day Cycles. Tumor response is assessed every other cycle by RANO criteria.

[3] = whole blood, intravenous, 0.7 mg/m2
[4] = whole blood, intravenous, 0.8 mg/m2
[5] = 7 CNS-MM patients, listed as Marizomib
[6] = MRZ 0.7 mg/m^2, C1D8 (17 May 2016)
[7] = MRZ 0.8 mg/m^2, C1D8 (17 May 2016)
[8] = MRZ 0.8 mg/m^2, C1D8 (Table 43)
[9] = BEV 10 mg/kg IV, serum, C1D15, marizomib 0.7 mg/m^2 cohort
[10] = BEV 10 mg/kg IV, serum, C1D15, marizomib 0.8 mg/m^2 cohort
[11] = BEV 10 mg/kg IV, serum, C1D15, marizomib […]^2 cohort
[12] = BEV PK, C1D15, MRZ 0.7 mg/m^2 cohort (17 May 2016)
[13] = BEV PK, C1D15, MRZ 0.7 mg/m^2 cohort (Table 43)
[14] = BEV PK, C1D15, MRZ 0.8 mg/m^2 cohort (17 May 2016)
[15] = BEV PK, C1D15, MRZ 0.8 mg/m^2 cohort (Table 43)
[16] = across all dose cohorts, BEV 10 mg/kg with MRZ

## C[C@@]12OC(=O)[C@]1([C@@H](O)[C@@H]1C=CCCC1)NC(=O)[C@@H]2CCCl [marizomib]
clinical; blood, iv, 0.7 mg/m2
  Cmax: 64.9 ± 1.73 ng/mL
clinical; blood, iv, 0.8 mg/m2
  Cmax: 26.5 ± 7.92 ng/mL
clinical; [3]
  Tmax: 11.3 min
  half-life: 32 min
clinical; [4]
  AUC(0-t): 4.05 ng·h/mL
  Cmax: 26 ± 8 ng/mL
  Tmax: 0 min
  half-life: 7.6 ± 0.9 min
clinical; whole blood, intravenous, […]2
  Tmax: 4 min
  half-life: 8.8 ± 0.8 min
clinical; whole blood, iv, 0.7 mg/m2
  AUC(0-t): 3.22 ng·h/mL
  Tmax: 21.3 min
  Vd: 48.3 ± 16.1 L
  half-life: 16 ± 8.08 min
clinical; whole blood, iv, 0.8 mg/m2
  AUC(0-t): 6.53 ng·h/mL
  Tmax: 8 min
  half-life: 7.27 ± 0.423 min
clinical; whole blood, iv, […]2
  Tmax: 15.5 min
  Vd: 54.4 ± 10.6 L
  half-life: 8.2 ± 0.8 min
CNS-MM; 7 CNS-MM patients
  complete responses: two
  partial responses: 3
  patients with at least a partial response (overall response rate): five of seven
  patients with survival greater than four months: four of seven
CNS-MM; 7 CNS-MM patients, listed as MRZ
  patients with at least a partial response (overall response rate): Five of 7
CNS-MM; [5]
  complete responses: 2
  patients with at least a partial response (overall response rate): 5/7
CNS-MM; Case 1
  Neurological Assessment: Reduction of CSF plasma cells
  reduction of CSF plasmacytosis: 99%
CNS-MM; Case 1, C2D1
  Reduction of CSF plasma cells: (90% C2D1)
CNS-MM; Case 2
  Neurological Assessment: sustained complete resolution of CSF plasmacytosis; also recorded: No CSF plasma cells detected; also recorded: Stable remission by MRI
CNS-MM; Case 2, ongoing C13
  Response: CR by serology; stable remission
CNS-MM; Case 3
  Neurological Assessment: undetectable CSF plasmacytosis since C3D1; also recorded: No evidence of FDG-avid lesions
CNS-MM; Case 3: MRZ 0.8 mg/m^2 + POM 4 mg + DEX 20 mg
  IMWG Assessment Systemic Disease: ongoing complete response
CNS-MM; Case 3, ongoing C8
  Response: CR - no evidence of active disease:
CNS-MM; Case 4
  Neurological Assessment: Transient improvement through
CNS-MM; Case 4, discontinued on C3
  Response: Best response PR with PD after C3
CNS-MM; Case 5, discontinued C1
  Response: Pleural effusion following C1D1
CNS-MM; Case 6
  Neurological Assessment: resolution of CNS disease; also recorded: Complete resolution of central
  reduction in systemic paraprotein: 77%
CNS-MM; Case 6, from 18 g/L
  Paraprotein after decrease: 18 to 4 g/L
CNS-MM; Case 7: MRZ 0.7 mg/m^2 + LEN 25 mg + DEX 10 mg
  IMWG Assessment Systemic Disease: PD (increase in tumor of ≥25% from lowest response value)
CNS-MM; Case 7: MRZ 0.7 mg/m^2 + LEN 25 mg + DEX 10 mg, listed as MRZ
  IMWG Assessment Systemic Disease: progressive disease
IV infusion
  CL: high
  T½: short
  Vd: large
[6]
  CLobs: 162 (1) mL/min/m^2
  Cmax: 65 ± 31 (3) ng/mL
  Vss obs: 7377 (1) mL/m^2
MRZ 0.7 mg/m^2, C1D8 (Table 43)
  CLobs: 272 ± 166 (3) L/hr
[7]
  CLobs: 3822 ± 1798 (2) mL/min/m^2
  Vss obs: 12379 ± 8698 (2) mL/m^2
[8]
  CLobs: 304 ± 85.0 (3) L/hr
  Vd: 55.0 ± 19.7 (3) L
MRZ […]^2, C1D8 (17 May 2016)
  Vss obs: 12971 ± 7600 (3) mL/m^2
Marizomib 0.7 mg/m^2 IV, C1D8, blood
  CLobs: 272 ± 166 (3) L/hr
Marizomib 0.8 mg/m^2 IV, C1D8, blood
  CLobs: 304 ± 85.0 (3) L/hr
With BEV
  MRZ pharmacokinetic parameters: effect of co-administration: not affected by co-administration

## bevacizumab [reference compound]
[1]
  Cmax of bevacizumab at Day 0: 284000 ng/mL
[2]; BEV 10 mg/kg IV, serum, C1D1, marizomib 0.7 mg/m^2 cohort
  Cmax D1: 193 ± 8 (2) μg/mL
[2]; BEV 10 mg/kg IV, serum, C1D1, marizomib 0.8 mg/m^2 cohort
  Cmax D1: 267 ± 13.3 (3) μg/mL
[2]; BEV 10 mg/kg IV, serum, C1D1, marizomib […]^2 cohort
  Cmax D1: 275 ± 37.5 (6) μg/mL
[2]; [9]
  Cmax D15: 402 ± 123 (3) μg/mL
  Cmin D15: 81.1 ± 17.4 (2) μg/mL
[2]; [10]
  Cmax D15: 380 ± 56.5 (2) μg/mL
  Cmin D15: 85.0 ± 9.87 (3) μg/mL
[2]; [11]
  Cmax D15: 351 ± 46.6 (5) μg/mL
  Cmin D15: 89.7 ± 6.2 (6) μg/mL
[2]; BEV PK, C1D1, MRZ 0.7 mg/m^2 cohort (17 May 2016)
  Cmax D1: 282 ± 89 (3) μg/mL
[2]; BEV PK, C1D1, MRZ 0.7 mg/m^2 cohort (Table 43)
  Cmax D1: 193 ± 8 (2) μg/mL
[2]; BEV PK, C1D1, MRZ 0.8 mg/m^2 cohort (17 May 2016)
  Cmax D1: 267 ± 133 (3) μg/mL
[2]; BEV PK, C1D1, MRZ 0.8 mg/m^2 cohort (Table 43)
  Cmax D1: 267 ± 13.3 (3) μg/mL
[2]; [12]
  Cmax D15: 402 ± 123 (3) μg/mL
  Cmin D15: 114 ± 34 (3) μg/mL
[2]; [13]
  Cmax D15: 402 ± 123 (3) μg/mL
  Cmin D15: 81.1 ± 17.4 (2) μg/mL
[2]; [14]
  Cmax D15: 404 ± 40 (3) μg/mL
  Cmin D15: 85 ± 9.9 (3) μg/mL
[2]; [15]
  Cmax D15: 380 ± 56.5 (2) μg/mL
  Cmin D15: 85.0 ± 9.87 (3) μg/mL
[2]; Study 108, BEV 10 mg/kg with MRZ
  Mean Day 15 Cmax of BEV: 379000 ng/mL
[2]; [16]
  mean Cmax of bevacizumab on Day 1: 275000 ng/mL
  mean Cmax of bevacizumab on Day 1 (second value so printed): 379000 ng/mL
  mean Cmin of bevacizumab on Day 15: 95000 ng/mL
[2]
  BEV pharmacokinetic parameters: effect of co-administration: not affected by co-administration
[2]; listed as BEV
  BEV pharmacokinetic parameters: effect of co-administration: no effect of MRZ on BEV pharmacokinetics; also recorded: not affected by co-administration of MRZ

Source: patent US10894036B2, “Use of marizomib for the treatment of central nervous system (CNS) cancers” (Celgene International II Sàrl, priority 2016, dated 2021)
